Laboratory results taken from publication PMC6430500, “3-Fluoro-4-hydroxyprolines: Synthesis, Conformational Analysis, and Stereoselective Recognition by the VHL E3 Ubiquitin Ligase for Targeted Protein Degradation” (Journal of the American Chemical Society, 2018).

How the values were obtained:
Format in all cases: cell-based
Brd3 = biological target: T1, Brd3 (Homo sapiens, UniProt Q15059); experiment: BET protein degradation in HeLa cells, Western blot; settings: 24 h
T1 construct: endogenous in cells; host or cells: HeLa
T1 sequence (Q15059 whole entry): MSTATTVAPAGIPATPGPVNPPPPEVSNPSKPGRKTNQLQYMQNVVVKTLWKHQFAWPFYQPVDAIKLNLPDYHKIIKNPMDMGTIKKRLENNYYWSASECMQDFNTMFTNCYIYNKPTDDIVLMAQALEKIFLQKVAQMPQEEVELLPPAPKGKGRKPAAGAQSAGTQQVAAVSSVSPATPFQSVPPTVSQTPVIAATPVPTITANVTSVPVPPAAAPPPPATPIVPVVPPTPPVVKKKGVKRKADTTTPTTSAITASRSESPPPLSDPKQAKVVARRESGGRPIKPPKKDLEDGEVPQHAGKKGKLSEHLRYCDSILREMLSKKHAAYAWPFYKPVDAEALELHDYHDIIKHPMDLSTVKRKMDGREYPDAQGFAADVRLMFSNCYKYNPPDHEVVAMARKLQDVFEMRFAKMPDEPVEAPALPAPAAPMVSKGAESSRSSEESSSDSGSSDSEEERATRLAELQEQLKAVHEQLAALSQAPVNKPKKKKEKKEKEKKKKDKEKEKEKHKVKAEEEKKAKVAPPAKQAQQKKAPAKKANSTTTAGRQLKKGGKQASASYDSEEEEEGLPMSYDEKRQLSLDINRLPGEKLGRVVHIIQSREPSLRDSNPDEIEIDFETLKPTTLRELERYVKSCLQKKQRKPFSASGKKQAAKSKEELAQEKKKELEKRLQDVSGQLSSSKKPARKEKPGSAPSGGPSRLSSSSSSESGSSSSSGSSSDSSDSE
Method: (§1) HeLa and A549 cells were kept in DMEM (Gibco) supplemented with 10%(v/v) FBS (Gibco), 2 mM L-glutamine (Gibco), penicillin (100 units /mL) and streptomycin (100 µ g/mL) (Gibco). MV4;11 cells were kept in RPMI 1640 supplemented with 10%(v/v) FBS (Gibco), 2 mM L-glutamine (Gibco), penicillin (100 units /mL) and streptomycin (100 µg/mL) (Gibco). Cells were kept at 37 °C, 5% CO2.
(§2) Testing compounds in cells
(§3) HeLa cells (3 x 105) were seeded onto each well on a six-well plate 24 h before treatment with test compounds. To treat the cells with the test compounds, medium was replaced with fresh medium containing specified concentration of test compounds for specified time. At the end of treatment, cells were washed with PBS and then were lysed by applying RIPA buffer (Sigma, R0278) supplemented with Protease inhibitor (Roche, # 04693159001) and Benzonase (Sigma, E1014). Lysate was clarified by centrifugation (20,000 x g, 10 min, 4 °C). Supernatant was collected and protein concentration of was determined by BCA assay. The rest of the clarified lysate was kept at -80° C before further […]
(§4) Protein on gel was transferred to nitrocellulose membrane using Bio-Rad Transblot system according to manufacturer guidelines. Blots were probed with anti- Brd4 (AbCam, ab128874), anti-Brd3 (AbCam, ab50818), anti- Brd2 (AbCam, ab139690) and anti-β-actin (Cell Signaling, no. 4970) antibodies. Blots were developed with secondary anti-mouse IgG (Licor, 926-32210) or anti-rabbit IgG (Licor, 926- 32213) antibodies from Licor and bands visualized using Bio-Rad ChemiDoc MP […]
(§5) Western Blot Quantification#
(§6) Image processing and band intensity quantification were performed using Bio-Rad Image Lab software version 6.0.0. Reported band intensities are normalized to loading control, i.e., β-actin or tubulin for total lysates.

Brd2 = biological target: T2, Brd2 (Homo sapiens, UniProt P25440); experiment: as above; settings: 24 h
T2 construct: endogenous in cells; host or cells: HeLa
T2 sequence (P25440 whole entry): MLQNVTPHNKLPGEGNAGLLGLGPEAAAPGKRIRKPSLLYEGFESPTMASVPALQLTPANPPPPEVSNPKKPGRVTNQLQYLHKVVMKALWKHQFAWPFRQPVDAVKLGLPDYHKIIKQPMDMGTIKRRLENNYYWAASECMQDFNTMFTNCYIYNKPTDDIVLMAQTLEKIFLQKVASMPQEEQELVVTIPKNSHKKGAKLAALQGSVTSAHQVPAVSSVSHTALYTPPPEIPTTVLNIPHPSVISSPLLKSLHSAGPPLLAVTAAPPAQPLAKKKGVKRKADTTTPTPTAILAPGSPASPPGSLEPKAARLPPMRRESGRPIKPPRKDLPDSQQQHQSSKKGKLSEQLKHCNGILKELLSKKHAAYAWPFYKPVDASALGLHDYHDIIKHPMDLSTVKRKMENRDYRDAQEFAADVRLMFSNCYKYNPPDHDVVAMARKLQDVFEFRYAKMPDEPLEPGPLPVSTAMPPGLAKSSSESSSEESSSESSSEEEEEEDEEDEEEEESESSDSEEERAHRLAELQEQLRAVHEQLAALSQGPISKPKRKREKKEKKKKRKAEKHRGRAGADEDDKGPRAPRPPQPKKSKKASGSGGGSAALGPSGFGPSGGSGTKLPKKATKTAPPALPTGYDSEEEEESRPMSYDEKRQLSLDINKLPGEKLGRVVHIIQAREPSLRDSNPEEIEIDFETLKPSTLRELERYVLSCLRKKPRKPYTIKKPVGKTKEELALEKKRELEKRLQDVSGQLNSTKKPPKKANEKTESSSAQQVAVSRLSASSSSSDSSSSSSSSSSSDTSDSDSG
Method: as §1, §2, §3, §4, §5, §6

A549 cells = experiment: A549 colony-formation assay; settings: 7 days, crystal violet
Method: A549 Colony-Formation Assay
A549 cells were seeded in clear, Nunc™ Edge 2.0 96 -w ell plates (Thermo Scientific) at 1000 cells per well and incubated at 37°C in DMEM. After 24 h cells were treated with test compounds from 10 µM to 100 nM , with a final DM SO of 0.1%. The cells were left to grow until DM SO -treated wells reached ~100% confluence (~8 days), at which point they were washed with PBS, fixed with 100% MeOH (30 min 4°C), stained with 0.1% crystal violet (30 min at r.t.) and left to dry overnight. Once dried plates were imaged on an Epson Perfection V800 scanner, at a resolution of 1200 DPI and in 48 -bit colour.
For dose-response curves, crystal-violet dye was extracted by the addition of 200 µl 1% SDS to each well, and incubation for 3 h at r.t. The absorbance at 595nm of each well was measured on a Pherastar FS (BMG), normalised for each compound and plotted against compound concentration.
(1 picture or pasted object on this page, not shown here)

## Cc1ncsc1-c1ccc(CNC(=O)[C@@H]2[C@@H](F)[C@@H](O)CN2C(=O)[C@@H](NC(=O)COCCOCCOCCNC(=O)C[C@@H]2N=C(c3ccc(Cl)cc3)c3c(sc(C)c3C)-n3c(C)nnc32)C(C)(C)C)cc1 [15a]
Brd3
  DC50: ~10 nM
Brd2
  DC50: ~10 nM
A549 cells
  effect on cell growth, colony formation (in words): profound concentration-dependent cytotoxicity

## Cc1ncsc1-c1ccc(CNC(=O)[C@@H]2[C@H](F)[C@@H](O)CN2C(=O)[C@@H](NC(=O)COCCOCCOCCNC(=O)C[C@@H]2N=C(c3ccc(Cl)cc3)c3c(sc(C)c3C)-n3c(C)nnc32)C(C)(C)C)cc1 [15b]
Brd3
  DC50: ~3000 nM
Brd2
  DC50: ~3000 nM
A549 cells
  effect on cell growth, colony formation (in words): affected cell growth only modestly
